From patent US8519007B2, “Use certain diterpene compounds in the treatment of androgen receptor-associated diseases” (Academia Sinica, priority 2008, dated 2013)

Columns and labels:
LNCaP cells = experiment: Western blot of caspases, PARP, p53 and Bcl-xL; assay type: cell-based, human; details: 10 μM
Description: (§1) During apoptosis, various caspases are activated which are involved in the cleavage and […] a range of cellular substrates, including […] the DNA repair enzyme PARP (Herceg Z et al., Mol Cell Biol 1999;10:5124-33; Okada H et al., Nat Rev Cancer 2004; 4:592-603). In the presence of 10 μM HDHS, PARP cleavage was observed, and at the same time caspase-3 and -7 were activated by proteolytic cleavage (FIG. 4B, lane 5). […] In contrast, activation of caspase-3 and -7 or cleavage of PARP were not detected in PC-3 cells treated with 10 μM HDHS for 24 h (FIG. 4B, lane 10). Tumor suppressor p53 is a control for the G1 checkpoint and cell apoptosis, and LNCaP cells express wild-type p53 (van Bokhoven A et al., Prostate 2003; 57:205-25).

PC-3 cells = experiment: Western blot of caspases and PARP; assay type: cell-based, human; details: PC-3, 10 μM, 24 h
Description: as §1

22Rv1 cells = experiment: Morphology of treated cells; details: 22Rv1, 10 to 50 μM, 48 h
Description: The long-term effect of HDHS on the malignant growth of AR-dependent (22Rv1, and LNCaP) and AR-independent (PC-3) PCa cells was examined by colony-forming growth assay.

## CC(C)c1cc2c(cc1O)[C@@]1(C)CCCC(C)(C)C1=C(O)C2=O [Compound 2, 6,12-dihydroxyabieta-5,8,11,13-tetraen-7-one]
LNCaP cells
  PARP cleavage: observed
  caspase-3 and -7 proteolytic cleavage: activated
LNCaP cells; 24 h
  decrease of anti-apoptotic regulator Bcl-xL level: ~50%
  increase in p53: 3 fold
PC-3 cells
  activation of caspase-3 and -7 or cleavage of PARP: not detected
22Rv1 cells
  morphology of treated cells: cell rounding and surface blebbing
